Data reported in patent publication US20090239846A1, “Novel Compounds” (Glaxo Group Limited, priority 2005, published 2009).
Counter-ions that a name gives are not always drawn. Like-named read-outs stand apart in the source and are kept apart here.

How the values were obtained:
[1] = test system: TGF-β-induced fibronectin and thrombospondin; details: Laping et al., 2002; cited from earlier work
[2] = molecular target: T1, Recombinant human p38α (Homo sapiens, UniProt Q16539); experiment: Time-resolved fluorescence resonance energy transfer (TR-FRET) kinase assay (standard or low volume); assay type: biochemical
T1 construct: GST; made in house
Experimental: […] To activate this protein, 3 μM unactivated p38α was incubated in 200 mM Hepes pH 7.4, 625 mM NaCl, 1 mM DTT with 27 nM active MKK6 (Upstate), 1 mM ATP and 10 mM MgCl2 The activity of the MKK6-activated p38α was assessed using a time-resolved fluorescence resonance energy transfer (TR-FRET) assay. Biotinylated-GST-ATF2 (residues 19-96, 400 nM final), ATP ([…]) and MgCl2 (5 mM final) in assay buffer (40 mM HEPES pH 7.4, 1 mM DTT) were added to wells containing 1 ul of various concentrations of compound or DMSO vehicle (3% final) in NUNC 384 well black plate. The reaction was initiated by the addition of MKK6-activated p38 (100 pM final) to give a total volume of 30 ul. The reaction was incubated for 120 minutes at room temperature, then terminated by the addition of 15 μl of 100 mM EDTA pH 7.4. Detection reagent (15 μl) in buffer (100 mM HEPES pH 7.4, 150 mM NaCl, 0.1% w/v BSA, 1 mM DTT) containing antiphosphothreonine-ATF2-71 polyclonal antibody (Cell Signalling Technology, Beverly Mass., USA) labelled with W-1024 europium chelate (Wallac OY, Turku, Finland), and APC-labelled streptavidin (Prozyme, San Leandro, Calif., USA) was added and the reaction was further incubated for 60 minutes at room temperature. The degree of phosphorylation of GST-ATF2 was measured using a Packard Discovery plate reader (Perkin-Elmer Life Sciences, Pangbourne, UK) as a ratio of specific 665 nm energy transfer signal to reference europium 620 nm signal.
[…] To activate this protein, 3 μM unactivated p38α was incubated in 200 mM Hepes pH7.4, 625 mM NaCl, 1 mM DTT with 27 nM active MKK6 (Upstate), 1 mM ATP and 10 mM MgCl2 The activity of the MKK6-activated p38α was assessed using a time-resolved fluorescence resonance energy transfer (TR-FRET) assay. Biotinylated-GST-ATF2 (residues 19-96, 400 nM final), ATP (125 μM final) and MgCl2 (5 mM final) in assay buffer (40 mM HEPES pH 7.4, 1 mM DTT) were added to wells containing 0.1 μl of various concentrations of compound or DMSO vehicle (1.7% final) in Greiner low volume 384 well black plate. The reaction was initiated by the addition of MKK6-activated p38α (100 pM final) to give a total volume of 6 μl. The reaction was incubated for 120 minutes at room temperature, then terminated by the addition of 3 μl of detection reagent in buffer (100 mM HEPES pH 7.4, 150 mM NaCl, 0.1% w/v BSA, 1 mM DTT, 100 mM EDTA) containing antiphosphothreonine-ATF2-71 polyclonal antibody (Cell Signalling Technology, Beverly Mass., USA) labelled with W-1024 europium chelate (Wallac OY, Turku, Finland), and APC-labelled streptavidin (Prozyme, San Leandro, Calif., USA). The reaction was further incubated for 60 minutes at room temperature. The degree of phosphorylation of GST-ATF2 was measured using a BMG Rubystar plate reader (BMG, UK) as a ratio of specific 665 nm energy transfer signal to reference europium 620 nm signal. It is noted that there are two assay formats shown above for the Time-resolved fluorescence resonance energy transfer kinase assay. The only difference between these two assays is the volume used and the plate type. […] The results described herein may have been performed in either assay format and are not differentiated as to which.

[3] = test system: TNFalpha; experiment: LPS-stimulated cytokine production in human whole blood; assay type: cell-based; details: LPS-stimulated TNF-alpha, bound, read-out: IC50
Experimental: Assay: Test compound concentrations were prepared at 10× concentrations and LPS prepared at 1 ug/ml (final conc. of 50 ng/ml LPS) and added in 50 uL volumes to 1.5 mL eppendorf tubes. Heparinized human whole blood was obtained from healthy volunteers and was dispensed into eppendorf tubes or multiwell plates containing compounds and LPS in 0.2-0.4 mL volumes and the tubes incubated at 37 C. In some studies, compound was incubated with blood for up to 30 min prior to addition of LPS. Following a 4 hour incubation, the tubes or plates were centrifuged to remove cells and plasma was withdrawn and frozen at −80 C. Cytokine measurement: IL-1beta and/or TNFalpha were quantified using a standardized ELISA, or similar technology. Concentrations of IL-1beta or TNFalpha were determined from standard curves of the appropriate cytokine and IC50 values for test compound (concentration that inhibited 50% of LPS-stimulated cytokine production) were calculated by linear regression analysis.

[4] = molecular target: T1, Recombinant human p38α; experiment: Fluorescence anisotropy kinase binding assay (standard or low volume); details: for active in the assay (pIC50, p38α binding): 12 nM p38α, 5 nM fluorescent ligand; for IC50: bound, read-out: apparent pIC50 (converted)
Method in brief: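 Activated GST-tagged recombinant human p38α (pre-activated with MBP-MKK6 DD) at 12 nM final with 5 nM rhodamine green-labelled pyridinylimidazole tracer in pH 7.5 HEPES/CHAPS/DTT/MgCl2 buffer. Test compound 0.28 nM–16.6 μM or 0.02 nM–25 μM final, 3% or 1.7% DMSO; 30–60 min at room temperature. Fluorescence anisotropy read (ex 485/em 535 nm) for Ki.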

[5] = test system: IL-6, IL-8, GM-CSF, RANTES and COX-2 synthesis; details: a number of different cell types; cited from earlier work
[6] = test system: IL-8 production by human neutrophils; experiment: TNF-stimulated IL-8 production from human neutrophils; assay type: cell-based; details: Neutrophil
[7] = second end given as 'less than', read-out: pIC50, broad range of data upon multiple runs (converted)
[8] = bound, read-out: pIC50 (converted)
[9] = bound, not more than 50% inhibition at 100 nM, read-out: IC50

T1 sequence (Q16539 whole entry): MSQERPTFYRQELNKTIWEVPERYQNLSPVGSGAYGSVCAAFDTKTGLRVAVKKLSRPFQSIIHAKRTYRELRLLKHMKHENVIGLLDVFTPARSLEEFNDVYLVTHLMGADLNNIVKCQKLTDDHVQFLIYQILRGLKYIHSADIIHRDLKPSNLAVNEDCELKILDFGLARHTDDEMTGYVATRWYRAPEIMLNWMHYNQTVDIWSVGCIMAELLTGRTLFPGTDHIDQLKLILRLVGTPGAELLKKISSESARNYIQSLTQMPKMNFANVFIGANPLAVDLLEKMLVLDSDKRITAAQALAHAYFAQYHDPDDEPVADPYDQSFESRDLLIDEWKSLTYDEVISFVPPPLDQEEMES

| SMILES | IC50 [2, 7] [µM] | active in the assay (pIC50, p38α binding) [4] | IC50 [6, 9] [µM] | IC50 [4] [µM] | further results |
| --- | --- | --- | --- | --- | --- |
| COc1nccc(-c2c(-c3ccc(F)cc3)ncn2C2CCNCC2)n1 [SB-242235] | – | – | – | – | effect on TGF-β-induced increases in fibronectin and thrombospondin [1]: inhibited |
| Cc1ccc(C(=O)O)cc1-c1nc(NCCN(C)C)nc2c1CNC(=O)N2c1c(F)cccc1F [Example 117, 3-(8-(2,6-difluorophenyl)-2-{[2-(dimethylamino)ethyl]amino}-7-oxo-5,6,7,8-tetrahydropyrimido[4,5-d]pyrimidin-4-yl)-4-methylbenzoic acid] | ≥ 0.158 | active | – | – | IC50 [3]: > 1 µM |
| C[S+]([O-])c1ccc(-c2nc(-c3ccncc3)c(-c3ccc(F)cc3)[nH]2)cc1 (centres unmarked) [SB-203580] | – | – | – | – | decreasing the synthesis of pro-inflammatory proteins including IL-6, IL-8, GM-CSF, RANTES and COX-2 [5]: effective |
| Cc1ccc(C(=O)Nc2ccc(C)c(-c3nc(NC4CCNCC4)nc4c3CNC(=O)N4c3c(F)cccc3F)c2)cc1F [Example 27(b), N-{3-[8-(2,6-difluorophenyl)-7-oxo-2-(4-piperidinylamino)-5,6,7,8-tetrahydropyrimido[4,5-d]pyrimidin-4-yl]-4-methylphenyl}-3-fluoro-4-methylbenzamide] | – | active | – | – | IC50 [2, 8]: > 15.8 µM; melting point: 218 to 223.5 °C |
| Cc1cc(C(=O)Nc2ccc(F)cc2)ccc1-c1nc(NCCN(C)C)nc2c1CNC(=O)N2c1c(F)cccc1F [Example 107, 4-(8-(2,6-difluorophenyl)-2-{[2-(dimethylamino)ethyl]amino}-7-oxo-5,6,7,8-tetrahydropyrimido[4,5-d]pyrimidin-4-yl)-N-(4-fluorophenyl)-3-methylbenzamide trifluoroacetate] | – | – | > 0.1 | > 15.8 | IC50 [2, 8]: > 1.58 µM |
| Cc1cc(C(=O)N(C)C)ccc1-c1nc(NCCN(C)C)nc2c1CNC(=O)N2c1c(F)cccc1F [Example 108, 4-(8-(2,6-difluorophenyl)-2-{[2-(dimethylamino)ethyl]amino}-7-oxo-5,6,7,8-tetrahydropyrimido[4,5-d]pyrimidin-4-yl)-N,N,3-trimethylbenzamide trifluoroacetate] | ≥ 0.158 | – | > 0.1 | > 15.8 | – |
| Cc1ccc(C(=O)NC2CCC2)cc1-c1nc(N2CCC(N)CC2)nc2c1CNC(=O)N2c1c(F)cccc1F [1(g), 3-[2-(4-Amino-1-piperidinyl)-8-(2,6-difluorophenyl)-7-oxo-5,6,7,8-tetrahydropyrimido[4,5-d]pyrimidin-4-yl]-N-cyclobutyl-4-methylbenzamide] | ≥ 0.00794 | active | – | – | IC50 ([6]; ends given as 'less than' / 'greater than', read-out: IC50, broad range of data upon multiple runs): 0.04 to 0.1 µM |
| Fc1ccc(-c2nc3n(c2-c2ccncc2)CCS3)cc1 [SK&F 86002] | – | – | – | – | decreasing the synthesis of pro-inflammatory proteins including IL-6, IL-8, GM-CSF, RANTES and COX-2 [5]: effective |
| Cc1ccc(C(=O)NCc2ccccc2)cc1-c1nc(NCCN(C)C)nc2c1CNC(=O)N2c1c(F)cccc1F [Example 18, 3-(8-(2,6-Difluorophenyl)-2-{[2-(dimethylamino)ethyl]amino}-7-oxo-5,6,7,8-tetrahydropyrimido[4,5-d]pyrimidin-4-yl)-4-methyl-N-(phenylmethyl)benzamide] | ≥ 0.00794 | – | – | – | melting point: 148 to 150 °C |
| Cc1cc(C(=O)Nc2ccccc2)ccc1-c1nc(NCCN(C)C)nc2c1CNC(=O)N2c1c(F)cccc1F [Example 106, 4-(8-(2,6-difluorophenyl)-2-{[2-(dimethylamino)ethyl]amino}-7-oxo-5,6,7,8-tetrahydropyrimido[4,5-l]pyrimidin-4-yl)-3-methyl-N-phenylbenzamide trifluoroacetate] | ≥ 0.158 | – | > 0.1 | > 15.8 | – |
